Among the data in EP4635954A1, “INDUCER FOR INDUCING MESENCHYMAL-EPITHELIAL TRANSITION AND REPROGRAMMING” (Iregene Therapeutics Co., Ltd, priority 2022, dated 2024) are Kd values, retold here.

This assay deals with miR-145. Nature of the assay: Isothermal titration calorimetry (ITC), Nano-ITC. The format is binding. The conditions noted are these: Multiple Sites model, 50 µM miR-145 in cell, 500 µM ligand in syringe. The source says:
Isothermal titration calorimetry (ITC) operates based on the principle of power compensation and allows accurate determination of the enthalpy change associated with molecular interactions across a broad concentration range using a single titration experiment. It measures the heat change upon binding and provides a complete thermodynamic profile of nucleic acid-ligand interactions. Quantitative thermodynamic characterization of the complex is essential for understanding the molecular basis of the interaction between the microRNA miR-145 and the small molecule compound. In this invention, the Nano-ITC calorimeter from Waters Corporation was used to validate in vitro the interaction between nucleic acid and small molecule compounds. The experimental procedure involved placing 300 µL of singlestranded miR-145 solution at a concentration of 50 µM into a temperature-controlled sample cell, which was thermally coupled via a thermocouple circuit to a reference cell containing an equal volume of deionized water. As an example, the small molecule A-3-6 was prepared at a concentration of 500 µM and a volume of 50 µL, and loaded into the injection syringe as the ligand. The heat change in the sample cell was measured and balanced against the reference cell, appearing as either endothermic or exothermic peaks. […]
Background: In ITC the heat of successive injections is recorded.

Structures are written as SMILES.

Usually Kd stands for a measure of binding affinity in units of concentration. A high value points to a looser complex. Regarding `O=C(Cc1ccccc1)Nc1cc2cc[nH]c2cn1` [Compound A-3-6, 2-Phenyl-N-(1H-pyrrolo[2,3-c]pyridin-5-yl)acetamide], the Kd reads like this: (site with nSite 1.8) 7.54 nM; (site with nSite 3) 70.2 nM.
